The source of these data is patent US20160347813A1, “GLUCAGON ANALOGUES” (Zealand Pharma A/S, priority 2011, published 2016).

As usually defined, the EC50 is the concentration at which the effect is half-maximal. Lower therefore signals greater potency.

Test [1] deals with T1, human GLP-1-R (Homo sapiens, UniProt P43220).
T1 construct: The DNA encoding the Glucagon-R or the GLP-1-R was amplified by PCR using primers encoding terminal restriction sites for subcloning; expressed in transfected cells
Put plainly: GLP-1 receptor efficacy assay (cAMP generation in HEK293 cells). It is filed as cell-based. The settings on record: cAMP generation in HEK293 cells expressing GLP-1 receptor. An excerpt: (§1) The DNA encoding the Glucagon-R or the GLP-1-R was amplified by PCR using primers encoding terminal restriction sites for subcloning. The 5′-end primers additionally encoded a near Kozak consensus sequence to ensure efficient translation. The fidelity of the DNA encoding the Glucagon-R and the GLP-1-R was confirmed by DNA sequencing. The PCR products encoding the Glucagon-R or the GLP-1-R were subcloned into a mammalian expression vector containing a neomycin (G418) resistance marker. The mammalian expression vectors encoding the Glucagon-R or the GLP-1-R were transfected into HEK293 cells by a standard calcium phosphate transfection method. 48 hr after transfection cells were seeded for limited dilution cloning and selected with 1 mg/ml G418 in the culture medium. Three weeks later 12 surviving colonies of Glucagon-R and GLP-1-R expressing cells were picked, propagated and tested in the Glucagon-R and GLP-1-R efficacy assays as described below. One Glucagon-R expressing clone and one GLP-1-R expressing clone were chosen for compound profiling.
(§2) On the day of analysis, growth medium was removed and the cells washed once with 200 μl Tyrode buffer. Cells were incubated in 100 μl Tyrode buffer containing increasing concentrations of test peptides, 100 μM IBMX, and 6 mM glucose for up 15 min at 37° C. The reaction was stopped by addition of 25 μl 0.5 M HCl and incubated on ice for 60 min. The cAMP content was estimated using the FlashPlate® cAMP kit from Perkin-Elmer according to manufacturer instructions. EC50 and relative efficacies compared to reference compounds (glucagon and GLP-1) were estimated by computer aided curve fitting.

Test [2] deals with T2, human Glucagon-R (Homo sapiens, UniProt P47871).
T2 construct: The DNA encoding the Glucagon-R or the GLP-1-R was amplified by PCR using primers encoding terminal restriction sites for subcloning; expressed in transfected cells
Put plainly: Glucagon receptor efficacy assay (cAMP generation in HEK293 cells). The settings on record: cAMP generation in HEK293 cells expressing Glucagon receptor. It is filed as cell-based.
Excerpt: as §1, §2

Residues, ends and D or L forms follow the SMILES beside them.

T1 sequence (P43220 24-463): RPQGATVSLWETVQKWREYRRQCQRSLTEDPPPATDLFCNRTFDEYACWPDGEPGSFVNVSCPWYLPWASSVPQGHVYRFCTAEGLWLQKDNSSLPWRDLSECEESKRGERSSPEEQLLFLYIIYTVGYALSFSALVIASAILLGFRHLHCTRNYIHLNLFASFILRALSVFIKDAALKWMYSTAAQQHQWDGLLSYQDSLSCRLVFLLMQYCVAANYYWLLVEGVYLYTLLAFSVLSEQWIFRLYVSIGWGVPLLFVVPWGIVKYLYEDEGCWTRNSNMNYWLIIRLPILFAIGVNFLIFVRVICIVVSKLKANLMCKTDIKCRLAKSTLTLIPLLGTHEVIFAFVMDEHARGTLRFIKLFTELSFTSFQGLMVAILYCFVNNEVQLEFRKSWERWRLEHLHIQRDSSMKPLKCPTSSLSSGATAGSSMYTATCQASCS
T2 sequence (P47871 26-477): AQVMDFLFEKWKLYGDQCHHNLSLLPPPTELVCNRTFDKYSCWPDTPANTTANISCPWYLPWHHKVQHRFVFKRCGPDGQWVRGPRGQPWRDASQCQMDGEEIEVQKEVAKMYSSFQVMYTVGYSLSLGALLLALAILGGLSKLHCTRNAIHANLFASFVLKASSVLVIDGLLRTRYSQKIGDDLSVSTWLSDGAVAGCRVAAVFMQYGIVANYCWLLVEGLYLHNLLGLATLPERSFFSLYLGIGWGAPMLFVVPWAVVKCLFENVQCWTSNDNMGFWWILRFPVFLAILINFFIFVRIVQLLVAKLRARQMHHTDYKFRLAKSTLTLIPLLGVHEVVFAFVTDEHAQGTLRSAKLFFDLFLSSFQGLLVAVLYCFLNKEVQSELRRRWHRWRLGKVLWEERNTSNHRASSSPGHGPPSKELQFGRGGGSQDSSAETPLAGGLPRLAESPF

`CCCCCCCCCCCCCCCC(=O)N[C@@H](CCC(=O)NCCCC[C@H](NC(=O)[C@H](CC(=O)O)NC(=O)[C@H](CC(C)C)NC(=O)[C@H](Cc1ccc(O)cc1)NC(=O)[C@H](CCCCN)NC(=O)[C@H](CO)NC(=O)[C@H](Cc1ccc(O)cc1)NC(=O)[C@H](CC(=O)O)NC(=O)[C@H](CO)NC(=O)[C@@H](NC(=O)[C@H](Cc1ccccc1)NC(=O)[C@@H](NC(=O)CNC(=O)[C@H](CCC(N)=O)NC(=O)C(C)(C)NC(=O)[C@@H](N)Cc1c[nH]cn1)[C@@H](C)O)[C@@H](C)O)C(=O)N[C@@H](CCCNC(=N)N)C(=O)N[C@@H](CCCNC(=N)N)C(=O)N[C@@H](C)C(=O)N[C@@H](CCCCN)C(=O)N[C@@H](CC(=O)O)C(=O)N[C@@H](Cc1ccccc1)C(=O)N[C@H](C(=O)N[C@@H](CCC(=O)O)C(=O)N[C@@H](Cc1c[nH]c2ccccc12)C(=O)N[C@@H](CC(C)C)C(=O)N[C@@H](CC(C)C)C(=O)N[C@@H](CO)C(=O)N[C@@H](C)C(N)=O)[C@@H](C)CC)C(=O)O` [Compound 1] (HELM PEPTIDE1{H.[Aib].Q.G.T.F.T.S.D.Y.S.K.Y.L.D.K.R.R.A.K.D.F.I.E.W.L.L.S.A.[am]}|PEPTIDE2{[CCCCCCCCCCCCCCCC(=O)[*:2]].[gGlu]}$PEPTIDE1,PEPTIDE2,16:R3-2:R2$$$V2.0) returned an EC50 in test [1] of 0.12 nM. In other words, the sub-nanomolar range.
In the case of `CCCCCCCCCCCCCCCC(=O)N[C@@H](CCC(=O)NCCCC[C@H](NC(=O)[C@H](CCC(=O)O)NC(=O)[C@H](CC(=O)O)NC(=O)[C@H](CC(C)C)NC(=O)[C@H](Cc1ccc(O)cc1)NC(=O)[C@H](CCCNC(=N)N)NC(=O)[C@H](CO)NC(=O)[C@H](Cc1ccc(O)cc1)NC(=O)[C@H](CC(=O)O)NC(=O)[C@H](CO)NC(=O)[C@@H](NC(=O)[C@H](Cc1ccccc1)NC(=O)[C@@H](NC(=O)CNC(=O)[C@H](Cc1c[nH]cn1)NC(=O)[C@H](CO)NC(=O)[C@@H](N)Cc1c[nH]cn1)[C@@H](C)O)[C@@H](C)O)C(=O)N[C@@H](CCCNC(=N)N)C(=O)N[C@@H](C)C(=O)N[C@@H](CCCNC(=N)N)C(=O)N[C@@H](CC(=O)O)C(=O)N[C@@H](Cc1ccccc1)C(=O)N[C@H](C(=O)N[C@@H](CCC(=O)O)C(=O)N[C@@H](Cc1c[nH]c2ccccc12)C(=O)N[C@@H](CC(C)C)C(=O)N[C@@H](CC(C)C)C(=O)N[C@@H](CO)C(=O)N[C@@H](C)C(N)=O)[C@@H](C)CC)C(=O)O` [Compound 10] (HELM PEPTIDE1{H.S.H.G.T.F.T.S.D.Y.S.R.Y.L.D.E.K.R.A.R.D.F.I.E.W.L.L.S.A.[am]}|PEPTIDE2{[CCCCCCCCCCCCCCCC(=O)[*:2]].[gGlu]}$PEPTIDE1,PEPTIDE2,17:R3-2:R2$$$V2.0), the EC50 in test [2] came out at 0.06 nM.
`CCCCCCCCCCCCCCCC(=O)N[C@@H](CCC(=O)NCCCC[C@H](NC(=O)[C@H](CCC(=O)O)NC(=O)[C@H](CC(=O)O)NC(=O)[C@H](CC(C)C)NC(=O)[C@H](Cc1ccc(O)cc1)NC(=O)[C@H](CCCNC(=N)N)NC(=O)[C@H](CO)NC(=O)[C@H](Cc1ccc(O)cc1)NC(=O)[C@H](CC(=O)O)NC(=O)[C@H](CO)NC(=O)[C@@H](NC(=O)[C@H](Cc1ccccc1)NC(=O)[C@@H](NC(=O)CNC(=O)[C@H](Cc1c[nH]cn1)NC(=O)C(C)(C)NC(=O)[C@@H](N)Cc1c[nH]cn1)[C@@H](C)O)[C@@H](C)O)C(=O)N[C@@H](CCCNC(=N)N)C(=O)N[C@@H](C)C(=O)N[C@@H](CCCNC(=N)N)C(=O)N[C@@H](CC(=O)O)C(=O)N[C@@H](Cc1ccccc1)C(=O)N[C@H](C(=O)N[C@@H](CCC(=O)O)C(=O)N[C@@H](Cc1c[nH]c2ccccc12)C(=O)N[C@@H](CC(C)C)C(=O)N[C@@H](CC(C)C)C(=O)N[C@@H](CO)C(=O)N[C@@H](C)C(N)=O)[C@@H](C)CC)C(=O)O` [Compound 12] (HELM PEPTIDE1{H.[Aib].H.G.T.F.T.S.D.Y.S.R.Y.L.D.E.K.R.A.R.D.F.I.E.W.L.L.S.A.[am]}|PEPTIDE2{[CCCCCCCCCCCCCCCC(=O)[*:2]].[gGlu]}$PEPTIDE1,PEPTIDE2,17:R3-2:R2$$$V2.0) showed a 50% effective concentration (EC50) in test [1] of 0.06 nM. In other words, the picomolar range.
The same measure, in the same setting: the value for `CCCCCCCCCCCCCCCC(=O)N[C@@H](CCC(=O)NCCCC[C@H](NC(=O)[C@H](CCC(=O)O)NC(=O)[C@H](CC(=O)O)NC(=O)[C@H](CC(C)C)NC(=O)[C@H](Cc1ccc(O)cc1)NC(=O)[C@H](CCCNC(=N)N)NC(=O)[C@H](CO)NC(=O)[C@H](Cc1ccc(O)cc1)NC(=O)[C@H](CC(=O)O)NC(=O)[C@H](CO)NC(=O)[C@@H](NC(=O)[C@H](Cc1ccccc1)NC(=O)[C@@H](NC(=O)CNC(=O)[C@@H]1CCCN1C(=O)[C@@H](CO)NC(=O)[C@@H](N)Cc1c[nH]cn1)[C@@H](C)O)[C@@H](C)O)C(=O)N[C@@H](CCCNC(=N)N)C(=O)N[C@@H](C)C(=O)N[C@@H](CCCNC(=N)N)C(=O)N[C@@H](CC(=O)O)C(=O)N[C@@H](Cc1ccccc1)C(=O)N[C@H](C(=O)N[C@@H](CCC(=O)O)C(=O)N[C@@H](Cc1c[nH]c2ccccc12)C(=O)N[C@@H](CC(C)C)C(=O)N[C@@H](CC(C)C)C(=O)N[C@@H](CO)C(=O)N[C@@H](C)C(N)=O)[C@@H](C)CC)C(=O)O` [Compound 14] (HELM PEPTIDE1{H.[dS].P.G.T.F.T.S.D.Y.S.R.Y.L.D.E.K.R.A.R.D.F.I.E.W.L.L.S.A.[am]}|PEPTIDE2{[CCCCCCCCCCCCCCCC(=O)[*:2]].[gGlu]}$PEPTIDE1,PEPTIDE2,17:R3-2:R2$$$V2.0) was 0.12 nM; that for `CCCCCCCCCCCCCCCC(=O)N[C@@H](CCC(=O)NCCCC[C@H](NC(=O)[C@H](CCC(=O)O)NC(=O)[C@H](CC(=O)O)NC(=O)[C@H](CC(C)C)NC(=O)[C@H](Cc1ccc(O)cc1)NC(=O)[C@H](CCCNC(=N)N)NC(=O)[C@H](CO)NC(=O)[C@H](Cc1ccc(O)cc1)NC(=O)[C@H](CC(=O)O)NC(=O)[C@H](CO)NC(=O)[C@@H](NC(=O)[C@H](Cc1ccccc1)NC(=O)[C@@H](NC(=O)CNC(=O)[C@@H]1CCCN1C(=O)C(C)(C)NC(=O)[C@@H](N)Cc1c[nH]cn1)[C@@H](C)O)[C@@H](C)O)C(=O)N[C@@H](CCCNC(=N)N)C(=O)N[C@@H](C)C(=O)N[C@@H](CCCNC(=N)N)C(=O)N[C@@H](CC(=O)O)C(=O)N[C@@H](Cc1ccccc1)C(=O)N[C@H](C(=O)N[C@@H](CCC(=O)O)C(=O)N[C@@H](Cc1c[nH]c2ccccc12)C(=O)N[C@@H](CC(C)C)C(=O)N[C@@H](CC(C)C)C(=O)N[C@@H](CO)C(=O)N[C@@H](C)C(N)=O)[C@@H](C)CC)C(=O)O` [Compound 15] (HELM PEPTIDE1{H.[Aib].P.G.T.F.T.S.D.Y.S.R.Y.L.D.E.K.R.A.R.D.F.I.E.W.L.L.S.A.[am]}|PEPTIDE2{[CCCCCCCCCCCCCCCC(=O)[*:2]].[gGlu]}$PEPTIDE1,PEPTIDE2,17:R3-2:R2$$$V2.0) was 0.06 nM; that for `CCCCCCCCCCCCCCCC(=O)N[C@@H](CCC(=O)NCCCC[C@H](NC(=O)[C@H](CCC(=O)O)NC(=O)[C@H](CC(=O)O)NC(=O)[C@H](CC(C)C)NC(=O)[C@H](Cc1ccc(O)cc1)NC(=O)[C@H](CCCNC(=N)N)NC(=O)[C@H](CO)NC(=O)[C@H](Cc1ccc(O)cc1)NC(=O)[C@H](CC(=O)O)NC(=O)[C@H](CO)NC(=O)[C@@H](NC(=O)[C@H](Cc1ccccc1)NC(=O)[C@@H](NC(=O)CNC(=O)[C@H](CCC(N)=O)NC(=O)C(C)(C)NC(=O)[C@@H](N)Cc1c[nH]cn1)[C@@H](C)O)[C@@H](C)O)C(=O)N[C@@H](CCCNC(=N)N)C(=O)N[C@@H](C)C(=O)N[C@@H](CCCCN)C(=O)N[C@@H](CC(=O)O)C(=O)N[C@@H](Cc1ccccc1)C(=O)N[C@H](C(=O)N[C@@H](CCC(=O)O)C(=O)N[C@@H](Cc1c[nH]c2ccccc12)C(=O)N[C@@H](CC(C)C)C(=O)N[C@@H](CC(C)C)C(=O)N[C@@H](CO)C(=O)N[C@@H](C)C(N)=O)[C@@H](C)CC)C(=O)O` [Compound 16] (HELM PEPTIDE1{H.[Aib].Q.G.T.F.T.S.D.Y.S.R.Y.L.D.E.K.R.A.K.D.F.I.E.W.L.L.S.A.[am]}|PEPTIDE2{[CCCCCCCCCCCCCCCC(=O)[*:2]].[gGlu]}$PEPTIDE1,PEPTIDE2,17:R3-2:R2$$$V2.0) was 0.06 nM.
The same measure, in the same setting: the same measure for `CCCCCCCCCCCCCCCC(=O)N[C@@H](CCC(=O)NCCCC[C@H](NC(=O)[C@H](CCC(=O)O)NC(=O)[C@H](CC(=O)O)NC(=O)[C@H](CC(C)C)NC(=O)[C@H](Cc1ccc(O)cc1)NC(=O)[C@H](CCCCN)NC(=O)[C@H](CO)NC(=O)[C@H](Cc1ccc(O)cc1)NC(=O)[C@H](CC(=O)O)NC(=O)[C@H](CO)NC(=O)[C@@H](NC(=O)[C@H](Cc1ccccc1)NC(=O)[C@@H](NC(=O)CNC(=O)[C@H](CCC(N)=O)NC(=O)[C@@H](CO)NC(=O)[C@@H](N)Cc1c[nH]cn1)[C@@H](C)O)[C@@H](C)O)C(=O)N[C@@H](CCCNC(=N)N)C(=O)N[C@@H](C)C(=O)N[C@@H](CCCCN)C(=O)N[C@@H](CC(=O)O)C(=O)N[C@@H](Cc1ccccc1)C(=O)N[C@H](C(=O)N[C@@H](CCC(=O)O)C(=O)N[C@@H](Cc1c[nH]c2ccccc12)C(=O)N[C@@H](CC(C)C)C(=O)N[C@@H](CC(C)C)C(=O)N[C@@H](CO)C(=O)N[C@@H](C)C(N)=O)[C@@H](C)CC)C(=O)O` [Compound 17] (HELM PEPTIDE1{H.[dS].Q.G.T.F.T.S.D.Y.S.K.Y.L.D.E.K.R.A.K.D.F.I.E.W.L.L.S.A.[am]}|PEPTIDE2{[CCCCCCCCCCCCCCCC(=O)[*:2]].[gGlu]}$PEPTIDE1,PEPTIDE2,17:R3-2:R2$$$V2.0): 0.07 nM.
